Experimental data as given in patent US20240327929A1, “DOSAGE REGIMEN FOR ADMINISTRATION OF BELZUTIFAN” (MERCK SHARP & DOHME LLC, priority 2021, published 2024).
Several values for one entry are separate records, joined by “and”; a condition that tells them apart may be missing. Equal values may be shown once.

What was measured:
UGT2B17 = biological target: T1, UGT2B17 (Homo sapiens, UniProt O75795)
T1 sequence (O75795 24-530): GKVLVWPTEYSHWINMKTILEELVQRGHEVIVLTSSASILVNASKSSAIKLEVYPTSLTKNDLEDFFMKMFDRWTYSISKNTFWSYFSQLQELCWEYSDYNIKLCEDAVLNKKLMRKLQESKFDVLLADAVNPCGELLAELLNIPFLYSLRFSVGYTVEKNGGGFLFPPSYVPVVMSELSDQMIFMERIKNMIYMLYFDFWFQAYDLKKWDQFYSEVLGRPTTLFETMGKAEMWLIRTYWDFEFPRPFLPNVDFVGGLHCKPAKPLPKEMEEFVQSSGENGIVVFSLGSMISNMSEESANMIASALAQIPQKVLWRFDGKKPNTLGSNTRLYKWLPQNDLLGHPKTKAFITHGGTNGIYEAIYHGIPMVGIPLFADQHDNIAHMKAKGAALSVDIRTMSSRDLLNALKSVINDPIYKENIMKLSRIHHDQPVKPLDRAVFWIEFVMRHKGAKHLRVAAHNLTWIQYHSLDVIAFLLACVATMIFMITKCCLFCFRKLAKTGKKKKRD

UGT2B17 and CYP2C19 = assay: Pharmacogenetic analysis of pooled Phase 1 PK: combined UGT2B17 and CYP2C19 phenotype vs double EM; details: model-based estimates
Description: Linear mixed effect model analyses were performed on the natural log transformed PK parameters from the four pooled Phase 1 studies, separately for AUC and Cmax. The model contained fixed effects of natural log transformed dose, drug formulation (old or new), enzyme phenotype determined from genotype, relevant additional covariates, and a random subject effect. UGT2B17 phenotype was considered as a categorical variable with dummy encoding for each phenotype (intermediate metabolizers (IM), poor metabolizers (PM)) that differed from the extensive metabolizer (EM) category). […]
To understand the differences in exposure between different genetic phenotype categories, least square means were computed for each UGT2B17 phenotype, each CYP2C19 phenotype, and for each combination UGT2B17/CYP2C19 phenotype. […] Similar analyses were also conducted separately within each UGT2B17 phenotype group to quantify the difference in exposure between CYP2C19 phenotype groups separately for each UGT2B17 phenotype. […]
The Phase 1 PK endpoints analyzed were AUCo->following single dose (SD) administration and steady state AUCo-, following multiple dose (MD) administration pooled, as well as Cmax following SD administration and steady state Cmax following MD administration pooled. […]

[1] = Effect of body weight on MK-6482 exposure (pooled Phase 1 mixed effects model); details: for % Change in AUC (h*ng/mL) per 10 kg increase in body weight / % Change in Cmax (ng/mL) per 10 kg increase in body weight: model accounting for dose, formulation
Description: Linear mixed effect model analyses were performed on the natural log transformed PK parameters from the four pooled Phase 1 studies, separately for AUC and Cmax. The model contained fixed effects of natural log transformed dose, drug formulation (old or new), enzyme phenotype determined from genotype, relevant additional covariates, and a random subject effect. UGT2B17 phenotype was considered as a categorical variable with dummy encoding for each phenotype (intermediate metabolizers (IM), poor metabolizers (PM)) that differed from the extensive metabolizer (EM) category). Similarly, CYP2C19 metabolizer status was considered as a categorical variable with dummy encoding for each phenotype (PM, IM, rapid metabolizers (RM) and ultra-rapid metabolizers (UM)) that differed from the EM category. Relevant covariates were selected under the null hypothesis from the following: disease (healthy vs patient), body weight (in kg), age, gender, and dose-by-body weight and dose-by-formulation interactions. Final models used to generate tables in this Example include log (dose), formulation (old/new), body weight (kg), and enzyme phenotype as variables.
Between- and within-subject random effects were modeled via terms Si and ϵij, respectively, and assumed to be normally distributed.
Presence of an interactive effect was tested using an F-test with Kenward-Roger denominator degrees of freedom for the fixed effects. As a descriptive measure, the effect of body weight on exposure was also calculated separately within each UGT2B17 group using a mixed effects model accounting for log(dose) and formulation only. […] For the overall estimate, model (1) was used.

[2] = Effect of dose and formulation on MK-6482 exposure (pooled Phase 1 mixed effects model); details: human, in vivo
Description: There are many important differences in patient composition between the trials. To note, MK-6482-001 was a first-in-human dose finding trial studying patients with advanced solid tumors or renal cell carcinoma (RCC), while MK-6482-002,-006, and-007 were PK trials conducted with (predominantly female) healthy volunteers. In addition, study-007 enrolled Japanese subjects based on specific CYP2C19 phenotypes; all other studies enrolled subjects without genotype-based selection criteria. Finally, the protocols differed in terms of belzutifan formulation given to trial subjects: subjects in protocols 001 and 002 were given one formulation of belzutifan, study 006 compared that formulation and a new formulations, enrolling all subjects to receive both the formulations, and study 007 patients only received the new formulation of MK-6482.

[3] = cited from earlier work
[4] = dose-escalation cohort, doses up to 160 mg once daily

SMILES: CS(=O)(=O)c1ccc(Oc2cc(F)cc(C#N)c2)c2c1[C@H](O)[C@H](F)[C@@H]2F [MK-6482, 3-[(1S,2S, 3R)-2,3-Difluoro-1-hydroxy-7-methylsulfonyl-indan-4-yl]oxy-5-fluoro-benzonitrile]
- metabolism (primary pathway and enzyme) (UGT2B17): metabolized primarily by glucuronidation, catalyzed predominantly by UDP Glucuronosyltransferase Family 2 Member B17 (UGT2B17)
- exposure of PMs of both enzymes relative to EMs of both enzymes (UGT2B17 and CYP2C19): over four-fold
- expected difference in exposure between extremes of body weight ([1]; 41 kg vs 164 kg, independent of enzyme phenotype): ~2.9 fold
- % Change in AUC (h*ng/mL) per 10 kg increase in body weight ([1]; UGT2B17 EM): −10.9%
- % Change in Cmax (ng/mL) per 10 kg increase in body weight ([1]; UGT2B17 EM): −6.4%
- % Change in AUC (h*ng/mL) per 10 kg increase in body weight ([1]; UGT2B17 IM): −8.3%
- % Change in Cmax (ng/mL) per 10 kg increase in body weight ([1]; UGT2B17 IM): −7.8%
- % Change in AUC (h*ng/mL) per 10 kg increase in body weight ([1]; UGT2B17 PM): −15.5%
- % Change in Cmax (ng/mL) per 10 kg increase in body weight ([1]; UGT2B17 PM): −4.5%
- decrease in AUC for every 10 kg increase in body weight ([1]; overall, all subjects): 9.2 (6.5, 12.0) % and 9.2%
- decrease in Cmax for every 10 kg increase in body weight ([1]; overall, all subjects): 7.0 (4.5, 9.5) %
- effect of dose on Cmax, estimated coefficient of log(dose) [2]: 0.90
- dose-limiting toxicities [3, 4]: no dose-limiting toxicities occurred
- maximum tolerated dose [3, 4]: not reached
- most common adverse events ([3]; heavily pre-treated patients with ccRCC): anemia and hypoxia
